Laboratory results: patent publication US11533912B2, “Use of cinnamate compounds in the control of fungal diseases of crops” (Institute of Plant Protection, Gansu Academy of …, priority 2019, dated 2022)
Like-named read-outs stand apart in the source and are kept apart here.

Legend:
Rhizoctonia solani = experiment: Ex vivo mycelial growth, growth rate method; format: cell-based; conditions: 1 mg/mL
Phytophthora infestans [1] = format: cell-based; conditions: Phytophthora infestans (first line), 1 mg/mL
Valsa mali = experiment: Ex vivo mycelial growth, growth rate method; format: cell-based; conditions: 1 mg/mL
Phytophthora capsici = experiment: Ex vivo mycelial growth, growth rate method; format: cell-based
Mycosphaerlla melonis = experiment: Ex vivo mycelial growth, growth rate method; format: cell-based; conditions: 1 mg/mL
[2] = tested on: F. oxysporum f. sp. vasinfectum; experiment: Ex vivo mycelial growth, growth rate method; format: cell-based; conditions: 1 mg/mL
C. gossypii = experiment: Ex vivo mycelial growth, growth rate method; format: cell-based; conditions: 1 mg/mL
F. graminearum = experiment: microbe, parasite or virus in culture; format: cell-based
Botrytis cinerea = experiment: Ex vivo mycelial growth, growth rate method; format: cell-based; conditions: 1 mg/mL
Exserohilum turcicum = experiment: Ex vivo mycelial growth, growth rate method; format: cell-based; conditions: 1 mg/mL
Sclerotinia sclerotiorum = experiment: Ex vivo mycelial growth, growth rate method; format: cell-based; conditions: 1 mg/mL
Pyricularia grisea = experiment: microbe, parasite or virus in culture; format: cell-based
Phytophthora infestans [3] = format: cell-based; conditions: Phytophthora infestans (second line), 1 mg/mL
zucchini = conditions: in vivo
Description: The first application was started on August 26th, at the early onset of powdery mildew (the average disease index is 10.07). The instrument for application was Agrolex HD 400 Model hand operating knapsack sprayer, which employed a cone nozzle. Each agent was formulated into the desired concentrations according to the usage amount of the control clear water. Both sides of the leaves were sprayed evenly so that the leaves were wetted by the liquor without loss. […] Thereafter, applications were conducted every 7 days consecutively for 4 times. 10 days after the last application, the number of disease leaves at each grade of powdery mildew was investigated for the whole plant following the grading standard of 9 grades, to calculate the disease index and the control effect.

cucumber = experiment: Crop safety (phytotoxicity) in the cucumber field test; conditions: at the test doses (triazole control agents: 1500 fold liquid)
Fusarium graminearum = experiment: microbe, parasite or virus in culture; format: cell-based
Pythium aphanidermatum = experiment: Ex vivo mycelial growth, growth rate method; format: cell-based; conditions: 1 mg/mL
Colletotrichum capsici = experiment: Ex vivo mycelial growth, growth rate method; format: cell-based; conditions: 1 mg/mL
[4] = tested on: Botryosphaeriana berengeriana; experiment: Ex vivo mycelial growth, growth rate method (line 'Botryosphaeriana berengeriana', r23); format: cell-based; conditions: Botryosphaeriana berengeriana (first line), 1 mg/mL
Coniella diplodiella = experiment: Ex vivo mycelial growth, growth rate method; format: cell-based; conditions: 1 mg/mL
[5] = tested on: Gaeumannomyces graminis var. graminis and G. graminis var. tritici; experiment: Ex vivo mycelial growth, growth rate method; format: cell-based; conditions: 1 mg/mL
[6] = tested on: Botryosphaeria berengeriana; experiment: Ex vivo mycelial growth, growth rate method (line 'Botryosphaeria berengeriana', r34); format: cell-based; conditions: Botryosphaeria berengeriana (second line), 1 mg/mL
Thanatephorus cucumeris = experiment: Ex vivo mycelial growth, growth rate method; format: cell-based; conditions: 1 mg/mL
F. verticillioide = experiment: Ex vivo mycelial growth, growth rate method; format: cell-based; conditions: 1 mg/mL
F. oxysporum f. sp. lini = experiment: Ex vivo mycelial growth, growth rate method; format: cell-based; conditions: 1 mg/mL
plant pathogenic fungi = experiment: organism not typed; format: cell-based; conditions: read-out: inhibition rate on mycelial growth, range over 9 fungi
[7] = tested on: Blumeria graminis f. sp. trilici; experiment: In-vivo control of wheat powdery mildew in a greenhouse; set-up: species or system Blumeria graminis f. sp. trilici on winter wheat
zucchini powdery mildew = experiment: Field efficiency test on zucchini powdery mildew; format: in vivo; conditions: 0.50 mg/mL
E. cichoracearum = experiment: Field efficiency test on cucumber powdery mildew; conditions: 0.50 mg/mL (active ingredients)
Protocol: The first application was started on Jun. 15, 2018, and E. cichoracearum was inoculated on June 17th (the diseased leaves were harvested from the solar greenhouse near the military airfield at Xiaguanying town, Yuzhong County, moisturized in the greenhouse for 2 days, then shredded, and filtered over a gauze, the filtrate was sprayed onto both sides of the cucumber leaves with the cone nozzle of an electric sprayer for inoculation). The second, third and fourth applications were conducted on June 23rd, July 2nd, and July 9th respectively, the water consumptions of which were adjusted promptly according to the amount of water desired for spraying evenly onto both sides of the control leaves. 10 days after the fourth application, the number of disease leaves at each grade of powdery mildew was investigated following the grading standard of 9 grades, to calculate the disease index and the control effect.

[8] = tested on: Erysiphe cucurbitacearum or Sphaerotheca cucurbitae; experiment: In-vivo control of zucchini powdery mildew in a greenhouse
Protocol: (2) In-Vivo Determination Method • Zucchini (Variety: Wuwei Xianglin extra-early 1st generation) were cultured in pots in a greenhouse, and inoculated with Erysiphe cucurbitacearum or Sphaerotheca cucurbitae at the stage of 3 to 4 leaves. […] Both sides of the leaves were sprayed evenly with a small hand-held sprayer so that the leaves were wetted by the liquor without loss. Applications were conducted every 7 days consecutively for 4 times. 10 days after the fourth application, the number of disease leaves at each grade of powdery mildew was investigated for the whole plant following the grading standard of 9 grades, to calculate the disease index and the control effect. The computational formula is as below: Disease index=[(Number of disease leaves at each grade×Corresponding grade value)/(Total number of investigated leaves×9)]×100; Control effect=(Disease index of the clear water control−Treated disease index)/Disease index of the clear water control×100.

E. polygoni = experiment: In-vivo control of marrow bean powdery mildew in a greenhouse
Protocol: (2) In-Vivo Determination Method • Marrow bean (Variety: Thailand Jiadouwang) were cultured in pots in a greenhouse, and inoculated with E. polygoni at the stage of 4 leaves. […] Both sides of the leaves were sprayed evenly with a small hand-held sprayer so that the leaves were wetted by the liquor without loss. Applications were conducted every 7 days consecutively for 4 times. 10 days after the fourth application, the number of disease leaves at each grade of powdery mildew was investigated for the whole plant following the grading standard of 9 grades, to calculate the disease index and the control effect.

[9] = tested on: damping-off (P. aphanidermatum, P capsici); experiment: In-vivo control of tomato damping-off in a greenhouse (sick soil); conditions: 0.80 mg/mL, 200 mL liquor per pot
Protocol: (§1) (2) In-Vivo Determination Method • Sick soil of damping-off (P. aphanidermatum, P capsici) was collected from the fields of tomatoes, eggplants and peppers in solar greenhouse, and mixed evenly in equal proportion. Tomatoes (Variety: Song Tian Fen Yang Yang, 100 grains), eggplants (Variety: Lanza No. 2 F1 long eggplant, 100 grains), pepper (Longjiao 2 F1, 100 grains) were seeded quantitatively with the sick soil in pots (diameter: 15 cm) in a greenhouse, additionally with sterile vermiculite as the control (each 100 grains for determining the germination rate). […] The computational formula is as below: Mortality of Seedlings (%)=[number of survival seedlings in the seeded grains−number of seeded grains×(100%−germination rate)]/number of seeded grains×100; Control Effect (%)=(mortality of control seedlings−mortality of treated seedlings)/mortality of control seedlings×100.

[10] = tested on: damping-off (P. aphanidermatum, P capsici); experiment: In-vivo control of pepper damping-off in a greenhouse (sick soil); conditions: 0.80 mg/mL, 200 mL liquor per pot
Protocol: as §1

[11] = mycelial growth, Phytophthora capsici, 1 mg/mL
[12] = F. graminearum (second line), 1 mg/mL
[13] = Fusarium graminearum, read-out: Inhibition Rate
[14] = Fusarium oxysporum, mycelial growth

`COC(=O)C=Cc1ccc(OC)c(OC)c1` [Control Compound A, methyl 3,4-dimethoxy cinnamate, reference compound] was tested, and the “Average Diameter of the Colony” value (Rhizoctonia solani) was 0.67 cm, the “Inhibition Rate” value (Rhizoctonia solani; mycelial growth) was 91.52% and the “Average Diameter of the Colony” value (Phytophthora infestans [1]) was 2.77 cm. The “Inhibition Rate” value (Phytophthora infestans [1]; mycelial growth) was 64.94%, the “Average Diameter of the Colony” value (Valsa mali) was 0.00 cm and the “Inhibition Rate” value (Valsa mali; mycelial growth) was 100%. For the same compound, the “Average Diameter of the Colony” value (Phytophthora capsici; Phytophthora capsici, 1 mg/mL) was 1.97 cm, the “Inhibition Rate” value (Phytophthora capsici; [11]) was 75.06% and the “Average Diameter of the Colony” value (Mycosphaerlla melonis) was 0.67 cm. The “Inhibition Rate” value (Mycosphaerlla melonis; mycelial growth) was 91.52%, the “Average Diameter of the Colony” value [2] was 2.43 cm and the “Inhibition Rate” value ([2]; mycelial growth) was 69.24%. The “Average Diameter of the Colony” value (C. gossypii) was 3.83 cm, the “Inhibition Rate” value (C. gossypii; mycelial growth) was 51.52% and the “Average Diameter of the Colony” value (F. graminearum; [12]) was 4.90 cm. The “Inhibition Rate” value (F. graminearum; mycelial growth, F. graminearum (second line), 1 mg/mL) was 37.98%, the “Average Diameter of the Colony” value (Botrytis cinerea) was 2.27 cm and the “Inhibition Rate” value (Botrytis cinerea; mycelial growth) was 71.27%. The “Average Diameter of the Colony” value (Exserohilum turcicum) was 1.37 cm, the “Inhibition Rate” value (Exserohilum turcicum; mycelial growth) was 82.66% and the “Average Diameter of the Colony” value (Sclerotinia sclerotiorum) was 0.00 cm. The “Inhibition Rate” value (Sclerotinia sclerotiorum; mycelial growth) was 100%, the “Average Diameter of the Colony” value (Pyricularia grisea; 1 mg/mL) was 3.83 cm and the “Inhibition Rate” value (Pyricularia grisea; mycelial growth, 1 mg/mL) was 51.52%. The “Average Diameter of the Colony” value (Phytophthora infestans [3]) was 0.27 cm, the “Inhibition Rate” value (Phytophthora infestans [3]; mycelial growth) was 96.58% and the safety for zucchini (zucchini) was “safe for zucchini and cucumber”. For the same compound, the “phytotoxicity / safety for cucumber” value (cucumber) was “safe for zucchini and cucumber”.
With `CCOC(=O)/C=C/c1ccc(OC)c(F)c1` [ethyl 3-(3′-fluoro-4′-methoxyphenyl) acrylate] the “Average Diameter of the Colony” value (Rhizoctonia solani) was 0.00 cm, the inhibition at 1000 µg/mL (Rhizoctonia solani; mycelial growth) was 100% and the “Average Diameter of the Colony” value (Phytophthora infestans [1]) was 1.40 cm. The “Average Diameter of the Colony” value (Valsa mali) was 0.85 cm, the inhibition at 1000 µg/mL (Valsa mali; Cytospora mali, mycelial growth) was 89.2% and the “Average Diameter of the Colony” value (Phytophthora capsici; Phytophthora capsici, 1 mg/mL) was 1.26 cm. The inhibition at 1000 µg/mL (Phytophthora capsici; [11]) was 76.2%, the “antifungal activity on Phytophthora capsici compared with hymexazol” value (Phytophthora capsici; supplementary determination results) was “superior to that of the control agent, hymexazol” and the “Average Diameter of the Colony” value (Fusarium graminearum; Fusarium graminearum (first line), 1 mg/mL) was 3.26 cm. The inhibition at 1000 µg/mL (Fusarium graminearum; [13]) was 39.1%, the “Average Diameter of the Colony” value (Mycosphaerlla melonis) was 0.37 cm and the inhibition at 1000 µg/mL (Mycosphaerlla melonis; mycelial growth) was 95.7%. For the same compound, the “Average Diameter of the Colony” value (Pythium aphanidermatum) was 2.60 cm, the inhibition at 1000 µg/mL (Pythium aphanidermatum; mycelial growth) was 61.2% and the “Average Diameter of the Colony” value (Colletotrichum capsici) was 0.11 cm. For the same compound, the inhibition at 1000 µg/mL (Colletotrichum capsici; Colletotrichum truncatum, mycelial growth) was 98.4%, the “Average Diameter of the Colony” value [4] was 1.19 cm and the inhibition at 1000 µg/mL ([4]; mycelial growth) was 79.1%. For the same compound, the “Average Diameter of the Colony” value (Coniella diplodiella) was 0.00 cm, the inhibition at 1000 µg/mL (Coniella diplodiella; mycelial growth) was 100% and the “Average Diameter of the Colony” value [2] was 4.45 cm. For the same compound, the inhibition at 1000 µg/mL [2, 14] was 38.5%, the “Average Diameter of the Colony” value [5] was 2.29 cm and the inhibition at 1000 µg/mL ([5]; mycelial growth) was 40%. For the same compound, the “Average Diameter of the Colony” value [6] was 1.72 cm, the inhibition at 1000 µg/mL ([6]; mycelial growth) was 74.7% and the “Average Diameter of the Colony” value (C. gossypii) was 0.42 cm. The inhibition at 1000 µg/mL (C. gossypii; Colletotrichum gossypii, mycelial growth) was 92.2%, the “Average Diameter of the Colony” value (F. graminearum; [12]) was 2.77 cm and the inhibition at 1000 µg/mL (F. graminearum; [13]) was 67.8%. For the same compound, the “Average Diameter of the Colony” value (Thanatephorus cucumeris) was 2.05 cm, the inhibition at 1000 µg/mL (Thanatephorus cucumeris; mycelial growth) was 76.2% and the “Average Diameter of the Colony” value (Botrytis cinerea) was 1.35 cm. The inhibition at 1000 µg/mL (Botrytis cinerea; mycelial growth) was 82%, the “Average Diameter of the Colony” value (Exserohilum turcicum) was 0.10 cm and the inhibition at 1000 µg/mL (Exserohilum turcicum; mycelial growth) was 98.4%. For the same compound, the “Average Diameter of the Colony” value (F. verticillioide) was 2.34 cm, the inhibition at 1000 µg/mL (F. verticillioide; mycelial growth) was 30.8% and the “Average Diameter of the Colony” value (Sclerotinia sclerotiorum) was 2.58 cm. For the same compound, the inhibition at 1000 µg/mL (Sclerotinia sclerotiorum; mycelial growth) was 70%, the “Average Diameter of the Colony” value (Pyricularia grisea; 1 mg/mL) was 7.70 cm and the inhibition at 1000 µg/mL (Pyricularia grisea; read-out: Inhibition Rate) was 14.4%. The “Average Diameter of the Colony” value (Phytophthora infestans [3]) was 0.00 cm, the “Average Diameter of the Colony” value (F. oxysporum f. sp. lini) was 7.20 cm and the inhibition at 1000 µg/mL (F. oxysporum f. sp. lini; [14]) was 20%. For the same compound, the inhibition at 1000 µg/mL (plant pathogenic fungi) was 82 to 100%, the “Control Effect” value ([7]; 0.143 mg/mL) was 64.75% and the “Control Effect” value ([7]; 0.20 mg/mL) was 67.60%. For the same compound, the “Control Effect” value (zucchini powdery mildew) was 85.82%, the “control effect on cucumber powdery mildew” value (E. cichoracearum) was 78.42% and the “Control Effect” value ([8]; 0.20 mg/mL) was 52.71%. The “Control Effect” value ([8]; 0.333 mg/mL) was 95.60%, the “Control Effect” value ([8]; 0.50 mg/mL) was 97.11% and the “Control Effect” value (E. polygoni; 0.10 mg/mL) was 77.26%. The “Control Effect” value (E. polygoni; 0.143 mg/mL) was 91.16%, the “Control Effect” value (E. polygoni; 0.20 mg/mL) was 94.51% and the “control effect on tomato damping-off” value [9] was 51.02%. For the same compound, the “control effect on pepper damping-off” value [10] was 56.47%.
